Measurements: the NIST ThermoML archive (doi:10.1021/acs.jced.8b00132)
Several values for one entry are separate records, joined by “and”; a condition that tells them apart may be missing. Equal entries are not always repeated.

O=C(C(F)(F)C(F)(F)F)C(F)(C(F)(F)F)C(F)(F)F [dodecafluoro-2-methylpentan-3-one]
Details | thermal conductivity
433.25 K, 43 kPa, Gas, hot wire | 0.02108 W/m/K
433.25 K, 156 kPa, Gas, hot wire | 0.02107 W/m/K
433.27 K, 1298 kPa, Gas, transient hot wire | 0.02415 W/m/K
433.28 K, 371 kPa, Gas, hot wire | 0.0228 W/m/K and 0.02281 W/m/K
433.28 K, 922 kPa, Gas, transient hot wire | 0.02221 W/m/K
433.28 K, 49421 kPa, Liquid, transient hot wire | 0.0643 W/m/K
433.29 K, 49444 kPa, Liquid, transient hot wire | 0.06433 W/m/K
433.3 K, 9673 kPa, Liquid, transient hot wire | 0.04596 W/m/K
433.3 K, 22710 kPa, Liquid, transient hot wire | 0.05348 W/m/K
433.31 K, 9675 kPa, Liquid, transient hot wire | 0.04592 W/m/K
433.35 K, 1138 kPa, Gas, transient hot wire | 0.02299 W/m/K
433.36 K, 15082 kPa, Liquid, transient hot wire | 0.04913 W/m/K
433.36 K, 22714 kPa, Liquid, transient hot wire | 0.0536 W/m/K
433.37 K, 162 kPa, Gas, hot wire | 0.02126 W/m/K
433.37 K, 1138 kPa, Gas, transient hot wire | 0.02295 W/m/K
433.37 K, 15085 kPa, Liquid, transient hot wire | 0.04954 W/m/K
433.38 K, 43 kPa, Gas, hot wire | 0.02108 W/m/K
433.38 K, 159 kPa, Gas, hot wire | 0.02129 W/m/K
433.38 K, 6166 kPa, Liquid, transient hot wire | 0.04304 W/m/K
433.39 K, 43 kPa, Gas, hot wire | 0.02105 W/m/K
433.39 K, 6163 kPa, Liquid, transient hot wire | 0.04307 W/m/K
433.41 K, 34187 kPa, Liquid, transient hot wire | 0.05868 W/m/K
433.43 K, 922 kPa, Gas, transient hot wire | 0.02216 W/m/K
433.43 K, 34200 kPa, Liquid, transient hot wire | 0.05865 W/m/K
433.44 K, 922 kPa, Gas, transient hot wire | 0.02224 W/m/K
433.45 K, 3945 kPa, Liquid, transient hot wire | 0.04079 W/m/K
433.46 K, 3946 kPa, Liquid, transient hot wire | 0.04082 W/m/K
433.49 K, 9685 kPa, Liquid, transient hot wire | 0.046 W/m/K
433.5 K, 375 kPa, Gas, transient hot wire | 0.02215 W/m/K
433.5 K, 9681 kPa, Liquid, transient hot wire | 0.04597 W/m/K
433.51 K, 377 kPa, Gas, transient hot wire | 0.02227 W/m/K
433.52 K, 1139 kPa, Gas, transient hot wire | 0.02308 W/m/K and 0.02311 W/m/K
433.53 K, 654 kPa, Gas, transient hot wire | 0.02193 W/m/K
433.53 K, 655 kPa, Gas, transient hot wire | 0.02205 W/m/K
433.55 K, 15079 kPa, Liquid, transient hot wire | 0.04951 W/m/K
433.55 K, 15081 kPa, Liquid, transient hot wire | 0.04953 W/m/K
433.55 K, 22699 kPa, Liquid, transient hot wire | 0.05365 W/m/K
433.55 K, 22714 kPa, Liquid, transient hot wire | 0.05356 W/m/K
433.59 K, 6168 kPa, Liquid, transient hot wire | 0.04309 W/m/K
433.59 K, 6172 kPa, Liquid, transient hot wire | 0.04309 W/m/K
433.6 K, 922 kPa, Gas, transient hot wire | 0.02237 W/m/K
433.69 K, 1141 kPa, Gas, transient hot wire | 0.02332 W/m/K
433.7 K, 374 kPa, Gas, transient hot wire | 0.02216 W/m/K
433.7 K, 375 kPa, Gas, transient hot wire | 0.02227 W/m/K
433.7 K, 1140 kPa, Gas, transient hot wire | 0.02335 W/m/K
433.7 K, 9688 kPa, Liquid, transient hot wire | 0.04596 W/m/K
433.7 K, 9691 kPa, Liquid, transient hot wire | 0.046 W/m/K
433.72 K, 652 kPa, Gas, transient hot wire | 0.02204 W/m/K
433.74 K, 651 kPa, Gas, transient hot wire | 0.02205 W/m/K
433.76 K, 15088 kPa, Liquid, transient hot wire | 0.04948 W/m/K
433.76 K, 15091 kPa, Liquid, transient hot wire | 0.04951 W/m/K
433.79 K, 922 kPa, Gas, transient hot wire | 0.02242 W/m/K
433.81 K, 6177 kPa, Liquid, transient hot wire | 0.04299 W/m/K
433.82 K, 6182 kPa, Liquid, transient hot wire | 0.04309 W/m/K
433.87 K, 1141 kPa, Gas, transient hot wire | 0.02354 W/m/K
433.88 K, 1141 kPa, Gas, transient hot wire | 0.02356 W/m/K
433.89 K, 373 kPa, Gas, transient hot wire | 0.02231 W/m/K
433.9 K, 373 kPa, Gas, transient hot wire | 0.02227 W/m/K
433.92 K, 9693 kPa, Liquid, transient hot wire | 0.04597 W/m/K
433.92 K, 9695 kPa, Liquid, transient hot wire | 0.04596 W/m/K
433.94 K, 648 kPa, Gas, transient hot wire | 0.02211 W/m/K
433.94 K, 649 kPa, Gas, transient hot wire | 0.02204 W/m/K
433.96 K, 922 kPa, Gas, transient hot wire | 0.02254 W/m/K
433.98 K, 922 kPa, Gas, transient hot wire | 0.02253 W/m/K
434.12 K, 372 kPa, Gas, transient hot wire | 0.02229 W/m/K and 0.02228 W/m/K
434.14 K, 645 kPa, Gas, transient hot wire | 0.02216 W/m/K
434.14 K, 646 kPa, Gas, transient hot wire | 0.02214 W/m/K
434.33 K, 371 kPa, Gas, transient hot wire | 0.02233 W/m/K
434.35 K, 371 kPa, Gas, transient hot wire | 0.02232 W/m/K
452.91 K, 2283 kPa, Gas, transient hot wire | 0.03823 W/m/K
452.94 K, 2214 kPa, Gas, transient hot wire | 0.03736 W/m/K
452.96 K, 2283 kPa, Gas, transient hot wire | 0.03736 W/m/K
452.98 K, 2213 kPa, Gas, transient hot wire | 0.03655 W/m/K
452.99 K, 2283 kPa, Gas, transient hot wire | 0.03849 W/m/K
452.99 K, 2349 kPa, Gas, transient hot wire | 0.03688 W/m/K
453 K, 2137 kPa, Gas, transient hot wire | 0.033 W/m/K
453 K, 2214 kPa, Gas, transient hot wire | 0.0364 W/m/K
453 K, 2283 kPa, Gas, transient hot wire | 0.03799 W/m/K
453.01 K, 2349 kPa, Gas, transient hot wire | 0.03694 W/m/K
453.01 K, 2431 kPa, Gas, transient hot wire | 0.0358 W/m/K
453.03 K, 2213 kPa, Gas, transient hot wire | 0.03832 W/m/K
453.03 K, 2432 kPa, Gas, transient hot wire | 0.03591 W/m/K
453.04 K, 2137 kPa, Gas, transient hot wire | 0.03326 W/m/K
453.04 K, 2213 kPa, Gas, transient hot wire | 0.0384 W/m/K and 0.03766 W/m/K
